Here are results for two compounds from patent publication US11123341B2, “Butyrylcholinesterase inhibitors for treatment of opioid use disorder” (priority 2019, dated 2021).

In one data set the test system is heroin-induced lethality. The data set can be described thus: Protection of mice against acute toxicity (lethality) of a lethal dose of heroin. As to conditions: 10 min before heroin 25 mg/kg IV, n=6. In kind it is in vivo. The method, then:
(§1) All mice were allowed ad libitum access to food and water and maintained on a 12 h light/12 h dark cycle, with the lights on at 8:00 a.m. at a room temperature of 21-22° C. Experiments were performed in a same colony room in accordance with the Guide for the Care and Use of Laboratory Animals as adopted and promulgated by the National Institutes of Health. The animal protocol was approved by the IACUC (Institutional Animal Care and Use Committee) at the University of Kentucky.
Heroin-induced acute toxicity was characterized in this study by the occurrence of death. […] Following the heroin administration, mice were immediately placed in containers for observation. The presence or absence of death was recorded for 6 hours following heroin administration.
(§2) Heroin-induced acute toxicity was characterized by the lethality (occurrence of death). For the protection experiments, a single dose of ethopropazine was administrated (IV) prior to administration of a lethal dose (LD100) of heroin (e.g. 25 mg/kg, IV). At 10 min after IV administration of ethopropazine or saline (negative control), the mice were given a lethal dose (LD100) of heroin. The protection experiments were performed under various dose conditions (n=6 for each scenario).

For data set [1] the following is noted: 1 mg/kg IV. The method, then: as §2
In data set [2] the test system is heroin-induced hyperactivity. The data set can be described thus: Locomotor activity test of heroin-induced hyperactivity. As to conditions: 10 mg/kg IV, 10 min prior to heroin 2.5 mg/kg IP; n=8. It is filed as in vivo, mice. The method, then:
as §1

For another data set, the target named is BChE (Homo sapiens, UniProt P06276). As to conditions: read-out: IC50 for BChE; cited from earlier work.
Chain of BChE (P06276 29-602): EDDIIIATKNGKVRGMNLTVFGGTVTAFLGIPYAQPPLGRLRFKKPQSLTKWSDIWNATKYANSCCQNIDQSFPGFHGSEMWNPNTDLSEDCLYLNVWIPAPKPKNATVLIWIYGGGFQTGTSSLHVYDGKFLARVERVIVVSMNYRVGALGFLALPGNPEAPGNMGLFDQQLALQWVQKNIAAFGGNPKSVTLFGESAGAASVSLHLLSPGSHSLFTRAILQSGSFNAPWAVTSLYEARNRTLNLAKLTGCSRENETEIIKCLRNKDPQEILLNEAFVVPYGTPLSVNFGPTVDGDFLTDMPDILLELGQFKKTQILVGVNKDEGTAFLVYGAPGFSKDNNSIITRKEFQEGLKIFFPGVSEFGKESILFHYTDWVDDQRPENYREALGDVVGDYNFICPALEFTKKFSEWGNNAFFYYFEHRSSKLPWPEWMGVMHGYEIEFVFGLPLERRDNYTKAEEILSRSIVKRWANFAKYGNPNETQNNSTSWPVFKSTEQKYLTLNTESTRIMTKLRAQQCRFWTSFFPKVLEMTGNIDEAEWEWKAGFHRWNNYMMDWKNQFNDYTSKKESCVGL

Turning to `O=C1CC[C@@]2(O)[C@H]3Cc4ccc(O)c5c4[C@@]2(CCN3CC2CC2)[C@H]1O5` [naltrexone], the “protection against heroin-induced lethality” value in the data set on heroin-induced lethality (naltrexone 0.3 mg/kg IV) is reported as “partial protection”. The “adverse effect observed in mice” value in data set [1] is “not able to stand and could hardly move at all”.
The IC50 is the concentration needed to halve the response being measured. `CCN(CC)C(C)CN1c2ccccc2Sc2ccccc21` (stereo not drawn) [ethopropazine]: the “effect on heroin-induced hyperactivity (total distance traveled)” value in data set [2] was “significantly attenuated heroin-induced hyperactivity”. For the same compound, the “protection against heroin-induced lethality” value with heroin-induced lethality (ethopropazine 1 mg/kg IV) was “partial protection”; with heroin-induced lethality (ethopropazine 10 mg/kg IV) it was “protected all mice”. For the same compound, the IC50 at BChE is 0.21 to 0.3 µM.
